Data from patent US8765773B2, “Substituted hydroxamic acids and uses thereof” (Millennium Pharmaceuticals, Inc., priority 2010, dated 2014).

What follows are compounds tested against T1, purified human HDAC6 (Homo sapiens, UniProt Q9UBN7) (assay: HDAC6 Enzyme Assay). Details: compound concentration 0.37 μM, read-out: Percent Inhibition.
T1 construct: purchased BPS Bioscience 5006
T1 sequence (Q9UBN7 1-1215): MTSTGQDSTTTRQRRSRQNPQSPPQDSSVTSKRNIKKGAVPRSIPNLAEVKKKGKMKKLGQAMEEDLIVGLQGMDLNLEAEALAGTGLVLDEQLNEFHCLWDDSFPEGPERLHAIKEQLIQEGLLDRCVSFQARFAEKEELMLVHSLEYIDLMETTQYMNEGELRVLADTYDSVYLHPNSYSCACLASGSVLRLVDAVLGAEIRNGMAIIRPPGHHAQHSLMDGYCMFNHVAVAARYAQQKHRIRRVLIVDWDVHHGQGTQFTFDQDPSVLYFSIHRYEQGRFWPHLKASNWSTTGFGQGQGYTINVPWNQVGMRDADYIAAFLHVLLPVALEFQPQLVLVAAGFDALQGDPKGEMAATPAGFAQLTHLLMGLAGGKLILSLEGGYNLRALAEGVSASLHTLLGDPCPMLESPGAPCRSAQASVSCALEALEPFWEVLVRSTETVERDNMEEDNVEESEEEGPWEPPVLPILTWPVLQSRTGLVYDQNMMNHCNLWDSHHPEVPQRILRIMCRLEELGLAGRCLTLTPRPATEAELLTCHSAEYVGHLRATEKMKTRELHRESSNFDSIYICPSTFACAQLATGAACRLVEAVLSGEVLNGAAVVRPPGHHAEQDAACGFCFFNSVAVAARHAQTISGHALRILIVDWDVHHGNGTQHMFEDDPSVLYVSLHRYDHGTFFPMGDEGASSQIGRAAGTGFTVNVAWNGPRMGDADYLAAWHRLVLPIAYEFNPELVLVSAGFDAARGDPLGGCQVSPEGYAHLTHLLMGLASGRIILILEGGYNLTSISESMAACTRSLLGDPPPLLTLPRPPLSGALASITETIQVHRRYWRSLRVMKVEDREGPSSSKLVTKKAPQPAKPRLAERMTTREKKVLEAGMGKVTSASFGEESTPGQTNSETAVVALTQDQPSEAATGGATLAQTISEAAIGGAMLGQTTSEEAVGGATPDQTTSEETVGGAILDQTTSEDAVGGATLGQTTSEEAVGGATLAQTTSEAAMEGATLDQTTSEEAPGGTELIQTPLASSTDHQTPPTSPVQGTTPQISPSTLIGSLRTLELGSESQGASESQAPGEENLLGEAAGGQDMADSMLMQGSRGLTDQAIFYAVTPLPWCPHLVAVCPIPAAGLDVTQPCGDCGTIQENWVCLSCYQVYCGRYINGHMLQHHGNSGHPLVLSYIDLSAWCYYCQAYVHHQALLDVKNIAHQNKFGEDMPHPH
Type: biochemical
How it was run: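 Readout is AMC fluorescence (Ex 340 nm, Em 460 nm) after trypsin cleavage of the deacetylated Ac-Arg-Gly-Lys(Ac)-AMC product. Reaction: purified human HDAC6, compound or vehicle, 1 hour, 30° C, quenched by trichostatin A. Single-concentration percent inhibition or IC50 calculated versus DMSO-treated samples.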

Row | Compound | inhibition at 0.37 µM [%]
1 | O=C(NO)c1ccc2ccn(Cc3cccc(-n4cccn4)c3)c(=O)c2c1 [Compound I-82, N-hydroxy-1-oxo-2-[3-(1H-pyrazol-1-yl)benzyl]-1,2-dihydroisoquinoline-7-carboxamide] | 100
2 | O=C(NO)c1ccc2c(=O)n(Cc3ccc(C(F)(F)F)cc3)c(-c3ccc4ccccc4c3)nc2c1 [Compound I-85, N-hydroxy-2-(2-naphthyl)-4-oxo-3-[4-(trifluoromethyl)benzyl]-3,4-dihydroquinazoline-7-carboxamide] | 72.6
3 | CS(=O)(=O)Nc1cccc(Cn2cnc3ccc(C(=O)NO)cc3c2=O)c1 [Compound I-200, N-hydroxy-3-{3-[(methylsulfonyl)amino]benzyl}-4-oxo-3,4-dihydroquinazoline-6-carboxamide] | 93.3
4 | O=C(NO)c1ccc2c(=O)n(Cc3ccc(C(F)(F)F)cc3)c(-c3ccc(Cl)cc3)nc2c1 [Compound I-134, 2-(4-chlorophenyl)-N-hydroxy-4-oxo-3-[4-(trifluoromethyl)benzyl]-3,4-dihydroquinazoline-7-carboxamide] | 88.6

More lines, now with the values ahead:

Row | inhibition at 0.37 µM [%] | Compound
5 | 87.2 | O=C(NO)c1ccc2ncn(CCc3cccc(-c4cccnc4)c3)c(=O)c2c1 [Compound I-331, N-hydroxy-4-oxo-3-[2-(3-pyridin-3-ylphenyl)ethyl]-3,4-dihydroquinazoline-6-carboxamide]
6 | 94.6 | O=C(NO)c1ccc2ccn(-c3ccccc3Cl)c(=O)c2c1 [Compound I-298, 2-(2-chlorophenyl)-N-hydroxy-1-oxo-1,2-dihydroisoquinoline-7-carboxamide]
7 | 63.7 | O=C(NO)c1ccc2ncn(CCc3cccc(-c4c(F)cccc4F)c3)c(=O)c2c1 [Compound I-347, 3-[2-(2′,6′-difluorobiphenyl-3-yl)ethyl]-N-hydroxy-4-oxo-3,4-dihydroquinazoline-6-carboxamide]
8 | 88 | O=C(NO)c1ccc2c(=O)n(Cc3ccc(C(F)(F)F)cc3)c(-c3cnc(N4CCOCC4)s3)nc2c1 [Compound I-237, N-hydroxy-2-(2-morpholin-4-yl-1,3-thiazol-5-yl)-4-oxo-3-[4-(trifluoromethyl)benzyl]-3,4-dihydroquinazoline-7-carboxamide]
9 | 78.8 | CN(C)c1ccc(-c2nc3cc(C(=O)NO)ccc3c(=O)n2Cc2ccc(C(F)(F)F)cc2)cc1 [Compound I-274, 2-[4-(dimethylamino)phenyl]-N-hydroxy-4-oxo-3-[4-(trifluoromethyl)benzyl]-3,4-dihydroquinazoline-7-carboxamide]

Same assay, conditions: compound concentration 0.412 μM, read-out: Percent Inhibition

Row | Compound | inhibition at 0.412 µM [%]
10 | Cn1c(=O)[nH]c2ccc(C(=O)NO)cc2c1=O [Compound I-169, N-hydroxy-3-methyl-2,4-dioxo-1,2,3,4-tetrahydroquinazoline-6-carboxamide] | 62.8
11 | CC(C)C(Cn1ccc2ccc(C(=O)NO)cc2c1=O)c1ccccc1 (centres unmarked) [Compound I-141, N-hydroxy-2-(3-methyl-2-phenylbutyl)-1-oxo-1,2-dihydroisoquinoline-7-carboxamide] | 90.5
12 | CN(C)c1nc2cc(C(=O)NO)ccc2c(=O)n1-c1ccccc1 [Compound I-192, 2-(dimethylamino)-N-hydroxy-4-oxo-3-phenyl-3,4-dihydroquinazoline-7-carboxamide] | 61.5
13 | O=C(NO)c1ccc2ccn(CCc3ccc(Cl)cc3)c(=O)c2c1 [Compound I-236, 2-[2-(4-chlorophenyl)ethyl]-N-hydroxy-1-oxo-1,2-dihydroisoquinoline-7-carboxamide] | 96.2
14 | CS(=O)(=O)c1ccc(Cn2ccc3ccc(C(=O)NO)cc3c2=O)cc1 [Compound I-186, N-hydroxy-2-[4-(methylsulfonyl)benzyl]-1-oxo-1,2-dihydroisoquinoline-7-carboxamide] | 95.5
15 | CC1(C)CCC(C)(C)c2cc(Cn3cnc4ccc(C(=O)NO)cc4c3=O)ccc21 [Compound I-112, N-hydroxy-4-oxo-3-[(5,5,8,8-tetramethyl-5,6,7,8-tetrahydronaphthalen-2-yl)methyl]-3,4-dihydroquinazoline-6-carboxamide] | 95.2
16 | COc1cc(OC)cc(OCCn2ccc3ccc(C(=O)NO)cc3c2=O)c1 [Compound I-101, 2-[2-(3,5-dimethoxyphenoxy)ethyl]-N-hydroxy-1-oxo-1,2-dihydroisoquinoline-7-carboxamide] | 95.7
17 | CCCC(C)n1ccc2ccc(C(=O)NO)cc2c1=O (centres unmarked) [Compound I-44, N-hydroxy-2-(1-methylbutyl)-1-oxo-1,2-dihydroisoquinoline-7-carboxamide] | 91.8
18 | CC(C)n1cnc2ccc(C(=O)NO)cc2c1=O [Compound I-121, N-hydroxy-3-isopropyl-4-oxo-3,4-dihydroquinazoline-6-carboxamide] | 71.9
19 | O=C(NO)c1ccc2ccn(Cc3ccc(F)cc3)c(=O)c2c1 [Compound I-76, 2-(4-fluorobenzyl)-N-hydroxy-1-oxo-1,2-dihydroisoquinoline-7-carboxamide] | 93.8
20 | O=C(NO)c1ccc2ccn(Cc3cccc(F)c3)c(=O)c2c1 [Compound I-109, 2-(3-fluorobenzyl)-N-hydroxy-1-oxo-1,2-dihydroisoquinoline-7-carboxamide] | 95.9
21 | O=C(NO)c1ccc2ccn(CCOc3ccc(-c4csnn4)cc3)c(=O)c2c1 [Compound I-189, N-hydroxy-1-oxo-2-{2-[4-(1,2,3-thiadiazol-4-yl)phenoxy]ethyl}-1,2-dihydroisoquinoline-7-carboxamide] | 97.2
22 | O=C(NO)c1ccc2ccn(CCOc3cc(Cl)cc(Cl)c3)c(=O)c2c1 [Compound I-99, 2-[2-(3,5-dichlorophenoxy)ethyl]-N-hydroxy-1-oxo-1,2-dihydroisoquinoline-7-carboxamide] | 93
23 | O=C(NO)c1ccc2ncn(Cc3ccc(C(F)(F)F)cc3C(F)(F)F)c(=O)c2c1 [Compound I-147, 3-[2,4-bis(trifluoromethyl)benzyl]-N-hydroxy-4-oxo-3,4-dihydroquinazoline-6-carboxamide] | 93.2
24 | O=C(NO)c1ccc2ccn(CCCN3CCCCC3)c(=O)c2c1 [Compound I-170, N-hydroxy-1-oxo-2-(3-piperidin-1-ylpropyl)-1,2-dihydroisoquinoline-7-carboxamide] | 67.1
25 | Cc1ccc(OCCn2ccc3ccc(C(=O)NO)cc3c2=O)cc1 [Compound I-212, N-hydroxy-2-[2-(4-methylphenoxy)ethyl]-1-oxo-1,2-dihydroisoquinoline-7-carboxamide] | 96.9

The remaining lines, values ahead:

Row | inhibition at 0.412 µM [%] | Compound
26 | 95.3 | COc1ccc(CCn2ccc3ccc(C(=O)NO)cc3c2=O)cc1 [Compound I-285, N-hydroxy-2-[2-(4-methoxyphenyl)ethyl]-1-oxo-1,2-dihydroisoquinoline-7-carboxamide]
27 | 76.8 | O=C(NO)c1ccc2c(=O)[nH]cnc2c1 [Compound I-284, N-hydroxy-4-oxo-3,4-dihydroquinazoline-7-carboxamide]
28 | 94.5 | O=C(NO)c1ccc2ccn(CCCn3cccc3)c(=O)c2c1 [Compound I-269, N-hydroxy-1-oxo-2-[3-(1H-pyrrol-1-yl)propyl]-1,2-dihydroisoquinoline-7-carboxamide]
29 | 20.9 | O=C(NO)c1ccc2c(=O)n(-c3ccc(Cl)cc3)c(=O)[nH]c2c1 [Compound I-280, 3-(4-chlorophenyl)-N-hydroxy-2,4-dioxo-1,2,3,4-tetrahydroquinazoline-7-carboxamide]
